Measured values published in article PMC9114799, “In vitro Evaluation of Isoniazid Derivatives as Potential Agents Against Drug-Resistant Tuberculosis” (Frontiers in Pharmacology, 2022).
≈ marks a conversion by molar mass, not a printed value. Read-outs that look alike come from different tables or passages of the source. Marks after values point to notes of the source that are not given here.

Experiments:
[1] = tested on: M. tuberculosis clinical strain katG (S315T); conditions: ref Martins et al., cited from earlier work
[2] = tested on: M. tuberculosis clinical strain katG (S315T); type: cell-based, Mycobacterium tuberculosis

In the case of `COC(=O)c1ccc(/C=N/NC(=O)c2ccncc2)cc1` [Compound N33, methyl (E)-4-((2-isonicotinoylhydrazineylidene)methyl)benzoate], the “MIC (katG S315T)” value ([1]; katG (S315T) Mtb, 2014) is listed as 21.2 ^a µM, the “activity in the mutated strain” value [2] is listed as “still active” and the “increase of MIC going from wt to S315T” value [2] is listed as ~20 fold.
For `COC(=O)c1ccc(CNNC(=O)c2ccncc2)cc1` [Compound N33red, methyl 4-((2-isonicotinoylhydrazinyl)methyl)benzoate], the “activity in the mutated strain” value [2] was “completely abolished”.
For `O=C(N/N=C/c1ccc(Oc2ccccc2)cc1)c1ccncc1` [Compound N34, (E)-N'-(4-phenoxybenzylidene)isonicotinohydrazide], the “MIC (katG S315T)” value ([1]; katG (S315T) Mtb, 2014) is listed as 18.9 ^a µM, the “activity in the mutated strain” value [2] is listed as “still active” and the “increase of MIC going from wt to S315T” value [2] is listed as ~20 fold.
With `O=C(NNCc1ccc(Oc2ccccc2)cc1)c1ccncc1` [Compound N34red, N'-(4-phenoxybenzyl)isonicotinohydrazide] the “activity in the mutated strain” value [2] was “completely abolished”.
For `NNC(=O)c1ccncc1` [INH, isonicotinoylhydrazide, reference compound], the “MIC (katG S315T)” value ([1]; katG (S315T) Mtb, 2014) is given as 43.8 ^a µM and the “increase of MIC going from wt to S315T” value [2] is given as “approximately 150 fold”.
In the case of `CCCCCCCCCC(=O)NNC(=O)c1ccncc1` [INH-C10, N′-decanoylisonicotinoylhydrazide], the “MIC (katG S315T)” value ([1]; Table S1, 2014 (per Table 2)) is given as 2.0 g/mL (≈ 6860 mM), the “MIC (katG S315T)” value ([1]; katG (S315T) Mtb, 2014) is given as 6.9 ^a µM and the “gain in efficacy against katG (S315T) strain compared with INH” value [2] is given as 6 fold. The “increase of MIC going from wt to S315T” value [2] was ~20 fold.
